Test results published in patent publication US8865751B2, “Thiazoles, imidazoles, and pyrazoles useful as inhibitors of protein kinases” (Vertex Pharmaceuticals Incorporated, priority 2006, dated 2014).
Read-outs that look alike come from different tables or passages of the source.

Legend:
[1] = molecular target: human Lck kinase (Homo sapiens, UniProt P06239); experiment: Lck inhibition assay (spectrophotometric coupled-enzyme assay); format: biochemical
Protocol: The compounds are evaluated as inhibitors of human Lck kinase using a spectrophotometric assay.
An assay buffer solution was prepared which consisted of 25 mM HEPES (pH 7.5), 10 mM MgCl2, 250 μM NADH, 3 mM phosphoenolpyruvate, 43 μg/mL pyruvate kinase, 14 μg/mL lactate dehydrogenase, 560 μM ATP and 67 nM Lck. To 60 μL of this solution, in a 96 well plate, was added 2 μL of test compound stock solution in DMSO and the mixture allowed to equilibrate for 10 minutes at 30° C. The enzyme reaction was initiated by the addition of 5 μL 15 mg/mL poly Glu, Tyr (4:1) prepared in 25 mM HEPES (pH 7.5). Final assay concentrations of Lck and ATP are 60 nM and 500 μM respectively. Initial rate data was determined from the rate of change of absorbance at 340 nm (corresponding to stoichiometric consumption of NADH) using a Molecular Devices Spectramax plate reader (Sunnyvale, Calif.) over 10 min at 30° C. For each Ki determination 8 data points covering the test compound concentration range of 0-7.5 μM are obtained in duplicate. Ki values are calculated from initial rate data by non-linear regression using the Prism software package (Prism 4.0a, Graphpad Software, San Diego, Calif.).

[2] = molecular target: human Src kinase (Homo sapiens, UniProt P12931); experiment: Src inhibition assay (spectrophotometric coupled-enzyme assay); format: biochemical; settings: 25 nM Src, 100 μM ATP, poly Glu,Tyr (4:1), 30° C.
Sequence of human Src kinase (P12931 whole entry): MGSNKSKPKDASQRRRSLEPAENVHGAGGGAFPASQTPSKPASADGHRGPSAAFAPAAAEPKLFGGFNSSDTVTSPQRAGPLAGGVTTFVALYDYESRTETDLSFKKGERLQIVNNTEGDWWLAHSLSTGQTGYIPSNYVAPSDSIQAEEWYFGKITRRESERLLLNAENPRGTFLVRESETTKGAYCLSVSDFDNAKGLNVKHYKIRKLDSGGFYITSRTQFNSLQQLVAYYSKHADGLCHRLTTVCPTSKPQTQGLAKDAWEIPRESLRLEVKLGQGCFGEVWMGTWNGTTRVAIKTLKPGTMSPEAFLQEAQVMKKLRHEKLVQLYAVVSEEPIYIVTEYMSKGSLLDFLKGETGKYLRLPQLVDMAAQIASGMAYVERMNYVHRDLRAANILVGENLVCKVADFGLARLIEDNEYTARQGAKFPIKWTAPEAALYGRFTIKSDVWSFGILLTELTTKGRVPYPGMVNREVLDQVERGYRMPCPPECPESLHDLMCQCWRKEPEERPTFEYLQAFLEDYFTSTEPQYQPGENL
Protocol: The compounds are evaluated as inhibitors of human Src kinase using a spectrophotometric assay.
An assay buffer solution was prepared which consisted of 25 mM HEPES (pH 7.5), 10 mM MgCl2, 250 μM NADH, 3 mM phosphoenolpyruvate, 60 μg/mL pyruvate kinase, 21 μg/mL lactate dehydrogenase, 113 μM ATP and 28 nM Src. To 60 μL of this solution, in a 96 well plate, was added 2 μL of test compound stock solution in DMSO and the mixture allowed to equilibrate for 10 mins at 30° C. The enzyme reaction was initiated by the addition of 5 μL 10 mg/mL poly Glu, Tyr (4:1) prepared in 25 mM HEPES (pH 7.5). Final assay concentrations of Src and ATP were 25 nM and 100 μM respectively. Initial rate data was determined from the rate of change of absorbance at 340 nm (corresponding to stoichiometric consumption of NADH) using a Molecular Devices Spectramax plate reader (Sunnyvale, Calif.) over 10 mins at 30° C. For each Ki determination 8 data points covering the test compound concentration range of 0-7.5 μM were obtained in duplicate. Ki values were calculated from initial rate data by non-linear regression using the Prism software package (Prism 4.0a, Graphpad Software, San Diego, Calif.).

[3] = Solubility under the Lck assay conditions; format: physicochemical; settings: Lck assay buffer conditions
[4] = 60 nM Lck, 500 μM ATP, poly Glu,Tyr (4:1), 30° C., read-out: Ki value, inhibition of Lck

Sequence of human Lck kinase (P06239 whole entry): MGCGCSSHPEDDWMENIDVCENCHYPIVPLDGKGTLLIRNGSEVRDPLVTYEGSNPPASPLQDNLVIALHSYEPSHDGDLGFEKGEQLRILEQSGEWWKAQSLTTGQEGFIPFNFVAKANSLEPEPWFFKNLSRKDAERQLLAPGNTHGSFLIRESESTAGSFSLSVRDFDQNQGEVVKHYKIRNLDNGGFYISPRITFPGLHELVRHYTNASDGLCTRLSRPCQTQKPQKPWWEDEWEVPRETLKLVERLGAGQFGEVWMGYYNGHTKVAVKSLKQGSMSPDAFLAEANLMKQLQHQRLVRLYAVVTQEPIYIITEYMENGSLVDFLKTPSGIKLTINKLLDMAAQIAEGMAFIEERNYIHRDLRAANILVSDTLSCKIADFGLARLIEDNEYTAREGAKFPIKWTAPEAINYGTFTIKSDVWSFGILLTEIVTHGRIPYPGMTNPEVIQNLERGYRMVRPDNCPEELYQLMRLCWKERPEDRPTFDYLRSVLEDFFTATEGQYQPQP

Compound | Ki [1, 4] [µM] | Ki [2] [µM] | solubility under the assay conditions [3] | Ki ([1]; read-out: Ki value, inhibition of Lck (expected)) [µM]
NC(=O)c1[nH]c(C2CCCC2)nc1-c1ccc(Oc2ccccc2)cc1 [Compound I-1] | < 0.1 | 0.1 to 0.5 | – | –
NC(=O)c1cn(C2CCCC2)nc1-c1ccc(Oc2ccccc2)cc1 [Compound I-2, 1-Cyclopentyl-3-(4-phenoxyphenyl)-1H-pyrazole-4-carboxamide] | 0.1 to 0.5 | > 1 | – | –
NC(=O)c1sc(C2CCCC2)nc1-c1ccc(Oc2ccccc2)cc1 [Compound I-3, 2-Cyclopentyl-4-(4-phenoxyphenyl)thiazole-5-carboxamide] | 0.1 to 0.5 | > 1 | – | –
NC(=O)c1sc(C2CCCCC2)nc1-c1ccc(Oc2ccccc2)cc1 [Compound I-4] | – | > 1 | relatively low | < 1
